# In US7026137B2, “Hepatitis” (Chang Gung University, priority 2003, dated 2006):
# Columns and labels:
# [1] = cited from earlier work
# [2] = test system: hepatitis C virus (HCV); experiment: HCV replication (HCV-RNA level by RT-PCR) in human liver slices from hepatitis C patients; format: cell-based; conditions: for suppression of HCV replication in liver slices: 3 days
# Description: Liver slices were prepared from liver tissues of the patients. To obtain the livers tissues, biopsy was performed using Bard Biopty-Cut biopsy needles (C. R. Bard, Inc. Covington, Ga.) with a diameter of 1.2 mm (18 gauge). Two equal-sized slices, 1 mm in thickness, were separated from each tissue. The remaining portion (main portion) of each tissue was subjected to pathological examination. The liver slices were incubated in a 24-well culture plate containing 2 ml of minimal essential medium-20% fetal bovine serum and fed with fresh medium daily.
# To evaluate whether it suppresses the authentic HCV replication in liver slices, the liver slices from patients S10-1 to S10-6 and S00-1 to S00-6 were incubated with 0, 10, and 100 μg/ml of sodium stibogluconate (Wuhan Shengmao Corp., Hubei, China), respectively, 24 hrs after the slices had been cultured in vitro. The slices from patient S10-5 served as a negative control. Three days later (i.e., 96 hr after the slices were cultured), the level of HCV RNA in each slice was measured.
# To detect the HCV-RNA level, one step RT-PCR (not nested) was performed in the manner described in Yeh et al., J. Gen. Virol. 78 (1997) 2761–2770. As a control, β-actin mRNA was measured simultaneously. 20 PCR cycles were performed, in which the amounts of the PCR products had not yet reached to a plateau. The primers used were described in Yeh et al., Oncogene 19 (2000) 5213–5220. […] Methods 65 (1997) 219–226. HCV genotypes were determined using Inno-Lipa HCV II kit (Innogenetics, Zwijndrecht, Belgium).
# The responsiveness of patients to Interferon-alpha, a drug currently being used to treat hepatitis C, was evaluated using liver slices. Liver slices prepared from patients INF-1 to 6 were incubated with 5000 U/ml of interferon-alpha2b (Schering-Plough Corp., Kenilworth, N.J. Slices from patient IFN-6, who was infected by hepatitis B virus, were used as negative controls.
# The slices form patient […] served as negative controls.
# [3] = test system: HCV replicon; experiment: HCV subgenomic RNA replicon system (Ava5); format: cell-based, hepatitis C virus
# [4] = test system: HCV in 293EBNA-Sip-L cells; experiment: HCV replication in HCV-infected 293EBNA-Sip-L cell line (intracellular HCV-RNA, nested RT-PCR); format: cell-based, hepatitis C virus; conditions: day 2 to day 7 after infection, RT-PCR sensitivity <10^2 copy per 10^5 cells, untreated cells 2.31×10^5 per 10^5 cells
# Description: To verify the ability of sodium stibogluconate to inhibit HCV replication, a 293EBNA-Sip-L cell line was used. This cell line, permissive for HCV infection and replication, had been established by expressing a cellular factor, Sip-L, in 293EBNA cells (Yeh et al., J. Virol. 75 (2001) 11017–11024). This cell line was maintained in a Dulbecco's modified Eagle's medium containing 10% fetal bovine serum, 250 μg/ml G418, and 150 μg/ml hygromycin B. The cells were infected with HCV. Briefly, cells in a 60-mm-diameter petri dish were incubated with a medium containing 5 μl of HCV-positive serum (10^7 copies of HCV-RNA/ml) for 12 hr. The cells were then incubated in a fresh medium without the serum.
# At the second day after the HCV infection, 293EBNA-Sip-L cells were incubated with media containing 0, 1, 10, and 100 μg/ml of sodium stibogluconate, respectively. At the seventh day, the cells were harvested to determine the intracellular level of HCV-RNA. The cells were trypsinized and washed two times with a fresh medium by centrifugation. The supernatant of the second wash (as a contamination control) and the washed cells were collected in pairs for RNA extraction and nested RT-PCR. A digoxigenin-labeled probe was used for the subsequent Southern blot analysis. The sequences of the primers, the method for generating the probe, and the procedure for RT-PCR were described in Yeh et al., J. Virol. 75 (2001) 11017–11024. An amplified HCV fragment was cloned into pCR2.1-TOPO (Invitrogen, Carlsbad, Calif.) to generate a plasmid, pTOPO-HCV5n, which served as a positive control in Southern blot analysis. As internal controls, the levels of 18s and 28s RNAs were measured.
# [5] = test system: hepatitis C; conditions: cited from earlier work
# [6] = test system: hepatocytes in human liver slices; experiment: Viability of hepatocytes in human liver slices (intracellular AST); format: cell-based; conditions: 96 hrs after the culture; Group V liver slices; without drug 57%; no significant difference between samples
# Description: To determine whether sodium stibogluconate or interferon-alpha 2b protects hepatocytes in human liver slices, the viability of hepatocytes in human liver slices incubated with the drugs was examined. As HCV replication causes the death of hepatocytes, intracellular aspartate aminotransferase (AST) leaks out. The intracellular level of AST therefore positively correlates with the cell viability.
# Liver slices prepared from the patients in Group V were treated with sodium stibogluconate or interferon-alpha 2b in the manner described above. The AST activity in the medium was determined using a standard technique 48, 72, and 96 hrs after the slices had been cultured in vitro. The AST activities in a fresh medium and in the liver slices 96 hrs after incubation were also measured. For this purpose, the slices were homogenized using a mini-homogenizer (Pellet Pestles, Kimble Deltaware, Vineland, N.J). The percentages of AST leaked out to the medium and remained in the liver slices were calculated accordingly.
Compound,estimated blood concentration immediately after injection ([1]; daily dose of 20 mg/kg as used in treating kala-azar),blood concentration needed for treating kala-azar ([1]; in vivo),"suppression of HCV replication in liver slices ([2]; 10 μg/ml, slices from patient S10-3)","suppression of HCV replication in liver slices ([2]; 10 μg/ml, slices from patients S10-1, S10-2, S10-4 and S10-6)","suppression of HCV replication in liver slices ([2]; 100 μg/ml, slices from patients S00-1, S00-2, S00-3 and S00-5)","suppression of HCV replication in liver slices ([2]; 100 μg/ml, slices from patients S00-4 and S00-6)",suppression of replication of an HCV replicon [3],intracellular HCV-RNA ([4]; 1 μg/ml),intracellular HCV-RNA ([4]; 10 μg/ml),intracellular HCV-RNA ([4]; 100 μg/ml),"suppression of HCV-RNA levels in liver slices ([2]; 5000 U/ml, slices from patient IFN-2)","suppression of HCV-RNA levels in liver slices ([2]; 5000 U/ml, slices from patient IFN-5)","suppression of HCV-RNA levels in liver slices ([2]; 5000 U/ml, slices from patients IFN-1, 3 and 4)","suppression of HCV-RNA levels in liver slices ([2]; interferon heated to 90° C. for 10 min (inactivated) before incubation, slices from patients iIF-1 to 6)",hepatitis C patients responsive to the treatment [5],intracellular AST level [6]
O.O.O.O.O.O.O.O.O.O=C([O-])[C@@H]1[O][Sb]2([O-])([O][Sb]34([OH])[O][C@H]([C@H](O)CO)[C@H]([O]3)[C@H](C(=O)[O-])[O]4)[O][C@H]([C@H](O)CO)[C@@H]1[O]2.[Na+].[Na+].[Na+] [sodium stibogluconate],about 400 μg/ml,400 µg/mL,not,partially suppressed,almost completely suppressed,not,capable of suppressing,none was detected,none was detected,none was detected,–,–,–,–,–,–
interferon-alpha 2b,–,–,–,–,–,–,–,–,–,–,no suppression,Partial suppression,suppressed to undetectable levels,No suppression,about 50%,83%
